In the supplement of paper PMC10307832:

compound: O=C(Nc1cc(C(F)(F)F)cc(C(F)(F)F)c1)c1cc(Cl)ccc1O [IMD-0354]; assay: relative viability (nuclei count vs DMSO), 5 days (fraction); higher = more cells survive; conditions: 0.04 µM
How it was run: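 Nuclei counted with MetaXpress define viability as the ratio of treated to vehicle wells, given as a median across plates. The lung cancer cell lines were in 1536-well plates, pinned with five √10-spaced library-drug doses and imaged at 4× after 5 days and Hoechst staining. Plates passed with control CV below 25% and at least one doubling.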

Cell Line | relative viability
HCC-366 | 1.04
NCI-H1666 | 0.954
NCI-H596 | 0.989
NCI-H1395 | 1.15
NCI-H2087 | 1.02
LK-2 | 1.19
H3255 | 0.911
COR-L23 | 0.922
COR-L 105 | 1.05
IA-LM | 0.791
LOU-NH91 | 1.1
NCI-H358 | 1.01
NCI-H2405 | 1.08
HOP-62 | 1.03
HCC-44 | 0.967
A549 | 1.11
LU99A | 0.726
BEN | 1.22
HARA | 1.17
HCC-78 | 0.988
NCI-H322M | 0.992
LCLC-97TM1 | 0.97
NCI-H2009 | 1.02
A-427 | 1.26
NCI-H661 | 0.999
NCI-H1734 | 1.09
NCI-H460 | 1.02
NCI-H2347 | 1.1
SW 1573 | 1.15
NCI-H1793 | 1.09

same assay, conditions: 0.1265 µM

Cell Line | relative viability
NCI-H2085 | 0.975
Calu-6 | 0.913
HCC-366 | 1.09
NCI-H1666 | 0.922
NCI-H596 | 1.16
NCI-H1395 | 0.989
NCI-H2087 | 1
LK-2 | 0.986
H3255 | 1.01
COR-L23 | 1
COR-L 105 | 0.832
IA-LM | 0.875
LOU-NH91 | 1
NCI-H358 | 1
NCI-H2405 | 1.09
HOP-62 | 1.08

Cell Line | relative viability
HCC-44 | 1.03
A549 | 0.991
LU99A | 0.95
BEN | 0.903
HARA | 0.88
HCC-78 | 0.989
NCI-H322M | 1.09
LCLC-97TM1 | 0.938
NCI-H2009 | 0.929
A-427 | 1.01
NCI-H661 | 0.955
NCI-H1734 | 0.969
NCI-H460 | 1.01
NCI-H2347 | 1.02
SW 1573 | 0.916
NCI-H1793 | 0.759

same assay, conditions: 0.4 µM

Cell Line | relative viability
NCI-H2085 | 0.775
Calu-6 | 0.648
HCC-366 | 0.543
NCI-H1666 | 0.82
NCI-H596 | 0.799
NCI-H1395 | 0.823
NCI-H2087 | 0.382
H3255 | 0.621
COR-L23 | 0.422
COR-L 105 | 0.738
IA-LM | 0.529
LOU-NH91 | 0.353
NCI-H358 | 0.557
NCI-H2405 | 0.7
HOP-62 | 0.639
HCC-44 | 0.497

Cell Line | relative viability
A549 | 0.496
LU99A | 0.788
BEN | 0.64
HARA | 0.537
HCC-78 | 0.579
NCI-H322M | 0.805
LCLC-97TM1 | 0.639
NCI-H2009 | 0.738
A-427 | 0.434
NCI-H661 | 0.646
NCI-H1734 | 0.731
NCI-H460 | 0.379
NCI-H2347 | 0.738
SW 1573 | 0.548
NCI-H1793 | 0.499

same assay, conditions: 1.265 µM

Cell Line | relative viability
NCI-H2085 | 0.449
Calu-6 | 0.181
HCC-366 | 0.111
NCI-H1666 | 0.611
NCI-H596 | 0.834
NCI-H1395 | 0.324
NCI-H2087 | 0.11
LK-2 | 1
H3255 | 0.601
COR-L23 | 0.13
COR-L 105 | 0.463
IA-LM | 0.389
LOU-NH91 | 0.252
NCI-H358 | 0.232
NCI-H2405 | 0.278
HOP-62 | 0.38

Cell Line | relative viability
HCC-44 | 0.301
A549 | 0.229
LU99A | 0.326
BEN | 0.463
HARA | 0.154
HCC-78 | 0.586
NCI-H322M | 0.406
LCLC-97TM1 | 0.384
NCI-H2009 | 0.19
A-427 | 0.153
NCI-H661 | 0.291
NCI-H1734 | 0.306
NCI-H460 | 0.106
NCI-H2347 | 0.511
SW 1573 | 0.22
NCI-H1793 | 0.229

same assay, conditions: 4 µM

Cell Line | relative viability
NCI-H2085 | 0.415
Calu-6 | 0.125
HCC-366 | 0.0465
NCI-H1666 | 0.523
NCI-H596 | 0.426
NCI-H1395 | 0.296
NCI-H2087 | 0.152
LK-2 | 0.271
H3255 | 0.362
COR-L23 | 0.14
COR-L 105 | 0.293
IA-LM | 0.128
LOU-NH91 | 0.273
NCI-H358 | 0.274
NCI-H2405 | 0.332
HOP-62 | 0.13

Cell Line | relative viability
HCC-44 | 0.194
A549 | 0.109
LU99A | 0.236
BEN | 0.277
HARA | 0.205
HCC-78 | 0.487
NCI-H322M | 0.331
LCLC-97TM1 | 0.128
NCI-H2009 | 0.131
A-427 | 0.134
NCI-H661 | 0.305
NCI-H1734 | 0.142
NCI-H460 | 0.0241
NCI-H2347 | 0.4
SW 1573 | 0.13
NCI-H1793 | 0.213
